{"source": "patent US20120225889A1", "about": "“USE OF MACROCYCLIC LACTONE DERIVATIVES FOR THE TREATMENT OF INFLAMMATORY DISORDERS” (PIRAMAL LIFE SCIENCES LIMITED, priority 2010, published 2012)", "key": {"IFN-γ": {"test_system": "IFN-γ", "assay": "Concanavalin-A-induced IFN-γ production from hPBMC", "type": "cell-based", "details": "Homo sapiens; Con-A-induced production from hPBMCs, 18 h", "protocol": "Peripheral blood mononuclear cells (hPBMC) were harvested using Ficoll-Hypaque density gradient centrifugation (1.077 g/mL; Sigma Aldrich). hPBMCs were resuspended in RPMI 1640 culture medium (Gibco BRL, Pasley, UK) containing 10% FCS, 100 U/mL penicillin (Sigma Chemical Co. St Louis, Mo.) and […] streptomycin (Sigma Chemical Co. St Louis, Mo.) at 1×10^6 cells/mL. 1×10^5 hPBMCs/well were pre-treated with test compound or 0.5% DMSO (carrier control) for 30 min at 37° C. Subsequently, these cells were stimulated with 1 μg/mL concanavalin A (Sigma Chemical Co., St. Louis, Mo.). Following 18 h incubation at 37° C., supernatants were collected and stored at −70° C. until assayed for human IFN-γ by ELISA as described by the manufacturer (OptiEIA ELISA sets, BD BioSciences). In each experiment, cyclosporin (1 μM) was used as a positive control for inhibiting induced IFN-γ production."}, "TNF-α": {"test_system": "TNF-α", "assay": "Cytokine release assay in hPBMCs: TNF-α", "type": "cell-based", "details": "Homo sapiens", "protocol": "hPBMCs were obtained from healthy donors by centrifugation of heparinized venous blood over Ficoll/Hypaque solution (Histopaque-1077, Sigma, USA). Isolated hPBMCs were suspended in RPMI 1640 culture medium supplemented with 10% FBS and seeded at a density of 50,000 cells/well in a 96-well plate (Nunc, USA). The cells were incubated at 37° C., 5% CO2 for a period of 24 h. These cells were used for the lymphocyte proliferation as well as cytokine release assay.\nThe plated cells were treated with different concentrations of the test compound (prepared as mM stock in DMSO and diluted with DMSO to achieve the following final concentrations in the assay: 100, 10, 1, 0.1, 0.01, 0.001, 0.0001, 0.00001 and 0.000001 μM) and incubated for 30 min. The cells were then stimulated with PHA (prepared as 1 mg/mL stock in RPMI 1640 culture medium and used at a final concentration of 5 μg/mL). FK506 was used as a standard. The plates were incubated at 37° C., 5% CO2 for 48 h. The cytokines in the supernatant collected were detected using ELISA kit (BD biosciences, USA). The cytokines evaluated in the assay were TNF-α, IL-2, IL-6, and IFN-γ."}}, "note": "Where two headings read alike, the source gives them in different places."}
{"smiles": "C/C=C/C(O)C(C)/C=C/C(=N\\O)C(C)C(O)C(C)C1OC(=O)/C(OC)=C/C(C)=C/C(C)C(O)C(CC)C(O)C(C)C/C(C)=C/C=C/C1OC", "note": "(stereo not drawn) [Compound of example 7, (3Z,5E,13E,15E)-18-((5Z,6E,10E)-3,9-Dihydroxy-5-(hydroxymino)-4,8-dimethyldodeca-6,10-dien-2-yl)-9-ethyl-8,10-dihydroxy-3,17-dimethoxy-5,7,11,13-tetramethyl oxacyclooctadeca-3,5,13,15-tetraen-2-one]", "values": [{"measurement": "IC50", "setting": "IFN-γ", "result": 0.2, "unit": "µM"}, {"measurement": "IC50", "setting": "TNF-α; Table 3: PHA-PMA induced hPBMC's, 48 h, read-out: TNF-α IC50", "result": 0.02, "unit": "µM"}, {"measurement": "IC50", "setting": "TNF-α; Table 4: mitogen stimulated production from hPBMC's, read-out: TNF-α (IC50 μM)", "result": 0.07, "unit": "µM"}]}
